Results: the supplement of paper PMC10307832

How the values were obtained:
Assay in all cases: relative viability (nuclei count vs DMSO), 5 days (fraction); higher = more cells survive
IMD-0354 + Tozasertib = compound: O=C(Nc1cc(C(F)(F)F)cc(C(F)(F)F)c1)c1cc(Cl)ccc1O [IMD-0354] + Cc1cc(Nc2cc(N3CCN(C)CC3)nc(Sc3ccc(NC(=O)C4CC4)cc3)n2)n[nH]1 [Tozasertib] (partner 0.1 µM)
Outline: (§1)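 The day after seeding in 1536-well plates, lung cancer cell lines were treated by pin tool with a single drug, or with a fixed anchor-drug dose together with five library-drug doses (not always all listed) in √10 steps. After 5 days, a combined fix-and-stain solution (final 0.05% Triton X-100, 1% formaldehyde, 1 ug/ml Hoechst) was added. Nuclei counted on 4× images gave relative viability as treated counts over vehicle counts, reported as the median of duplicate plates.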

IMD-0354 + Olaparib = compound: O=C(Nc1cc(C(F)(F)F)cc(C(F)(F)F)c1)c1cc(Cl)ccc1O [IMD-0354] + O=C(c1cc(Cc2n[nH]c(=O)c3ccccc23)ccc1F)N1CCN(C(=O)C2CC2)CC1 [Olaparib] (partner 8 µM)
Outline: as §1

CX-5461 + Foretinib = compound: Cc1cnc(CNC(=O)c2c(=O)c3ccc(N4CCCN(C)CC4)nc3n3c2sc2ccccc23)cn1 [CX-5461] + COc1cc2c(Oc3ccc(NC(=O)C4(C(=O)Nc5ccc(F)cc5)CC4)cc3F)ccnc2cc1OCCCN1CCOCC1 [Foretinib] (partner 0.25 µM)
Outline: as §1

CX-5461 + Pictilisib = compound: Cc1cnc(CNC(=O)c2c(=O)c3ccc(N4CCCN(C)CC4)nc3n3c2sc2ccccc23)cn1 [CX-5461] + CS(=O)(=O)N1CCN(Cc2cc3nc(-c4cccc5[nH]ncc45)nc(N4CCOCC4)c3s2)CC1 [Pictilisib] (partner 1 µM)
Outline: as §1

Cell Line	relative viability (IMD-0354 + Tozasertib; first compound 0.04 µM)	relative viability (IMD-0354 + Tozasertib; first compound 0.1265 µM)	relative viability (IMD-0354 + Tozasertib; first compound 0.4 µM)	relative viability (IMD-0354 + Tozasertib; first compound 1.265 µM)	relative viability (IMD-0354 + Tozasertib; first compound 4 µM)	relative viability (IMD-0354 + Olaparib; first compound 0.04 µM)	relative viability (IMD-0354 + Olaparib; first compound 0.1265 µM)	relative viability (IMD-0354 + Olaparib; first compound 0.4 µM)	relative viability (IMD-0354 + Olaparib; first compound 1.265 µM)	relative viability (IMD-0354 + Olaparib; first compound 4 µM)	relative viability (CX-5461 + Foretinib; first compound 0.01 µM)	relative viability (CX-5461 + Foretinib; first compound 0.03162 µM)	relative viability (CX-5461 + Foretinib; first compound 0.1 µM)	relative viability (CX-5461 + Foretinib; first compound 0.3162 µM)	relative viability (CX-5461 + Foretinib; first compound 1 µM)	relative viability (CX-5461 + Pictilisib; first compound 0.01 µM)	relative viability (CX-5461 + Pictilisib; first compound 0.03162 µM)	relative viability (CX-5461 + Pictilisib; first compound 0.1 µM)	relative viability (CX-5461 + Pictilisib; first compound 0.3162 µM)	relative viability (CX-5461 + Pictilisib; first compound 1 µM)
NCI-H1395	0.753	0.721	0.683	0.453	0.344	0.449	0.464	0.466	0.361	0.337	0.959	0.916	0.884	0.988	0.737	0.568	0.576	0.914	0.447	0.395
NCI-H2126	0.915	0.942	0.573	0.348	0.294	1	0.908	0.68	0.512	0.364	1.28	1.3	1.16	1.39	0.838	0.486	0.521	0.478	0.518	0.487
NCI-H3122	0.468	0.421	0.248	0.139	0.119	0.461	0.633	0.417	0.509	0.137	0.915	0.906	0.941	0.929	0.974	0.558	0.657	0.617	0.533	0.608
NCI-H1975	0.814	0.864	0.399	0.111	0.148	1.07	0.912	0.437	0.191	0.18	0.971	0.896	1.03	0.981	0.521	0.293	0.274	0.274	0.315	0.209
NCI-H2170	0.788	0.779	0.377	0.624	0.226	0.531	0.647	0.421	0.561	0.185	0.964	1.01	0.944	1.07	1	0.368	0.366	0.344	0.232	0.379
LU99A	0.326	0.254	0.267	0.244	0.218	0.196	0.269	0.257	0.176	0.179	0.818	0.797	0.764	0.495	0.798	0.296	0.312	0.271	0.289	0.173
NCI-H2347	0.767	0.513	0.563	0.505	0.233	0.606	0.64	0.49	0.377	0.265	0.994	1.11	0.947	0.842	0.849	0.769	0.697	0.49	0.562	0.665
NCI-H2009	0.877	0.752	0.51	0.24	0.139	0.625	0.694	0.591	0.366	0.115	1.24	1.17	1.07	1.18	1.04	0.87	0.862	0.635	0.519	0.815
HCC-15	0.331	0.379	0.31	0.17	0.098	0.576	0.69	0.474	0.317	0.157	1.11	1.02	0.978	0.895	0.591	0.753	0.933	0.749	0.239	0.495
HCC-44	0.955	0.899	0.706	0.351	0.17	0.994	1.04	0.571	0.789	0.296						0.584	0.877	0.492	0.644	0.43
NCI-H1299						0.767	0.969	0.505	0.193	0.16	1.06	1.06	1.09	1.06	1.11	0.842		0.768	0.799	0.545
NCI-H1648		0.454	0.498	0.424	0.269	0.528	0.484	0.565	0.677	0.225										
NCI-H1563											0.88	0.826	0.806	0.826	0.569	0.648	0.662	0.637	0.624	0.528
A549						0.365	0.555	0.108	0.0898	0.0605	1.01	0.883	0.948	0.987	0.385	0.555	0.525		0.472	0.0627
NCI-H522	0.58	0.513	0.5	0.576	0.404	0.517	0.716	0.625	0.46	0.333										
NCI-H1623	0.484	0.444	0.398	0.342	0.277						0.971	0.871	0.809	0.934	0.723					
SW 900	0.635	0.531	0.409	0.273	0.225	0.928	0.948	0.66	0.212	0.258	0.967	0.968	1.07	1.08	0.811					
IA-LM						0.829	0.729	0.521	0.161	0.133	1.21	1.12	1.14	1.07	0.885	0.337	0.327	0.254	0.33	0.207
EBC-1						0.616	0.661	0.503	0.183	0.171	0.108	0.085	0.11	0.112	0.0969	0.375	0.344	0.331	0.362	0.224
